What was measured:
kochia [1] = assay: Test A postemergence; format: in vivo, Kochia scoparia
How it was run: (§1)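 Visual injury scored 0–100 (100 = complete control) against untreated controls about 10 days after treatment in a greenhouse. Test chemicals, formulated with surfactant in non-phytotoxic solvent, were sprayed on soil preemergence or on 2-10 cm, one- to two-leaf plants postemergence.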

galium = assay: Test A postemergence; format: in vivo, Galium aparine
How it was run: as §1

ragweed = assay: Test A postemergence; format: in vivo, Ambrosia elatior
How it was run: as §1

kochia [2] = assay: Test A preemergence; format: in vivo, Kochia scoparia
How it was run: as §1

[3] = 125 g ai/ha, 0 to 100 scale where 0 is no effect and 100 is complete control
[4] = 500 g ai/ha, 0 to 100 scale where 0 is no effect and 100 is complete control
[5] = 31 g ai/ha, 0 to 100 scale, 0 no effect, 100 complete control
[6] = 1000 g ai/ha, 0 to 100 scale, 0 no effect, 100 complete control
[7] = 1000 g ai/ha, 0 to 100 scale, 0 no effect, 100 complete control, approx. 10 days
[8] = 125 g ai/ha, 0 to 100 scale, 0 no effect, 100 complete control
[9] = 500 g ai/ha, 0 to 100 scale, 0 no effect, 100 complete control, approx. 10 days
[10] = 31 g ai/ha, 0 to 100 scale where 0 is no effect and 100 is complete control, visual, approximately 10 days

## COc1cnn(-c2c(C#N)cccc2Oc2ncc(Cl)cn2)c1 [Compound 137]
Kochia [1]; [3]
  Kochia plant response rating: 80
Kochia [1]; [4]
  Plant response rating, Kochia: 100
galium; [3]
  Galium plant response rating: 70
galium; [4]
  Plant response rating, Galium: 100
ragweed; [3]
  Ragweed plant response rating: 20
ragweed; [4]
  Plant response rating, Ragweed: 100
Kochia [2]; [3]
  Plant response rating, Kochia: 90
Kochia [2]; [4]
  Kochia plant response rating: 100

## FCc1cccc(Oc2ncc(Br)cn2)c1-n1cc(C(F)(F)F)cn1 [Compound 120]
Kochia [1]; [5]
  Plant response rating, Kochia: 60
Kochia [1]; [3]
  Plant response rating, Kochia: 90
galium; [5]
  Plant response rating, Galium: 90
galium; [3]
  Plant response rating, Galium: 100
ragweed; [5]
  Plant response rating, Ragweed: 30
Kochia [2]; 31 g ai/ha
  Kochia plant response rating (0 to 100 scale): 20
Kochia [2]; [3]
  Plant response rating, Kochia: 90

## Fc1cccc(Oc2ncc(Cl)cn2)c1-n1cc(C2CC2)nn1 [Compound 155]
Kochia [1]; [6]
  Plant response rating, Kochia: 100
galium; [6]
  Plant response rating, Galium: 100
ragweed; [6]
  Plant response rating, Ragweed: 100
Kochia [2]; [7]
  Kochia plant response rating: 100

## FCc1cccc(Oc2ncc(F)cn2)c1-n1cc(C(F)(F)F)cn1 [Compound 118]
Kochia [1]; [5]
  Plant response rating, Kochia: 60
Kochia [1]; [3]
  Plant response rating, Kochia: 100
galium; [5]
  Plant response rating, Galium: 70
galium; [3]
  Plant response rating, Galium: 90
ragweed; [5]
  Plant response rating, Ragweed: 70
Kochia [2]; 31 g ai/ha
  Kochia plant response rating (0 to 100 scale): 100
Kochia [2]; [3]
  Plant response rating, Kochia: 100

## N#Cc1cccc(Oc2ncc(Cl)cn2)c1-n1cc(-n2ccc(C(F)(F)F)n2)cn1 [Compound 284]
Kochia [1]; [8]
  Plant response rating, Kochia: 60
Kochia [1]; [4]
  Plant response rating, Kochia: 100
galium; [8]
  Plant response rating, Galium: 20
galium; [4]
  Plant response rating, Galium: 60
ragweed; [8]
  Plant response rating, Ragweed: 20
ragweed; [4]
  Plant response rating, Ragweed: 20
Kochia [2]; 125 g ai/ha
  Kochia plant response rating (0 to 100 scale): 80
Kochia [2]; [4]
  Kochia plant response rating: 100

## FCc1cccc(Oc2ncc(Cl)cn2)c1-n1cc(Br)cn1 [Compound 83]
Kochia [1]; [3]
  Plant response rating, Kochia: 100
Kochia [1]; [4]
  Plant response rating, Kochia: 100
galium; [3]
  Plant response rating, Galium: 100
galium; [4]
  Plant response rating, Galium: 100
ragweed; [3]
  Plant response rating, Ragweed: 70
ragweed; [4]
  Plant response rating, Ragweed: 80
Kochia [2]; [3]
  Plant response rating, Kochia: 100
Kochia [2]; [9]
  Kochia plant response rating: 100

## Cc1cnc(Oc2cccc(C#N)c2-n2cc(I)cn2)nc1 [Compound 136]
Kochia [1]; [3]
  Kochia plant response rating: 70
Kochia [1]; [4]
  Plant response rating, Kochia: 100
galium; [3]
  Galium plant response rating: 80
galium; [4]
  Plant response rating, Galium: 100
ragweed; [3]
  Ragweed plant response rating: 50
ragweed; [4]
  Plant response rating, Ragweed: 100
Kochia [2]; [3]
  Plant response rating, Kochia: 90
Kochia [2]; [4]
  Kochia plant response rating: 100

## FC(F)(F)Sc1cnn(-c2ccccc2Oc2ncc(Cl)cn2)c1 [Compound 132, 5-chloro-2-[2-[4-(trifluoromethylthio)-1H-pyrazol-1-yl]phenoxy]pyrimidine]
Kochia [1]; [3]
  Kochia plant response rating: 90
Kochia [1]; [4]
  Plant response rating, Kochia: 100
galium; [3]
  Galium plant response rating: 100
galium; [4]
  Plant response rating, Galium: 100
ragweed; [3]
  Ragweed plant response rating: 10
ragweed; [4]
  Plant response rating, Ragweed: 30
Kochia [2]; [3]
  Plant response rating, Kochia: 100
Kochia [2]; [4]
  Kochia plant response rating: 100

## CCCOc1cnn(-c2c(C#N)cccc2Oc2ncc(Cl)cn2)c1 [Compound 150]
Kochia [1]; [3]
  Kochia plant response rating: 70
Kochia [1]; [4]
  Plant response rating, Kochia: 100
galium; [3]
  Galium plant response rating: 90
galium; [4]
  Plant response rating, Galium: 100
ragweed; [3]
  Ragweed plant response rating: 20
ragweed; [4]
  Plant response rating, Ragweed: 60
Kochia [2]; [3]
  Plant response rating, Kochia: 100
Kochia [2]; [4]
  Kochia plant response rating: 100

## FCc1cn(-c2c(F)cccc2Oc2ncc(Cl)cn2)nn1 [Compound 154]
Kochia [1]; [6]
  Plant response rating, Kochia: 100
galium; [6]
  Plant response rating, Galium: 100
ragweed; [6]
  Plant response rating, Ragweed: 100
Kochia [2]; [7]
  Kochia plant response rating: 100

## Clc1cnc(Oc2cccc(Br)c2-n2cc(Br)nn2)nc1 [Compound 129]
Kochia [1]; [3]
  Kochia plant response rating: 100
Kochia [1]; [4]
  Plant response rating, Kochia: 100
galium; [3]
  Galium plant response rating: 100
galium; [4]
  Plant response rating, Galium: 100
ragweed; [3]
  Ragweed plant response rating: 80
ragweed; [4]
  Plant response rating, Ragweed: 90
Kochia [2]; [3]
  Plant response rating, Kochia: 100
Kochia [2]; [4]
  Kochia plant response rating: 100

## Fc1cccc(Oc2ncc(Cl)cn2)c1-n1cc(OCC(F)(F)F)cn1 [Compound 270]
Kochia [1]; [5]
  Plant response rating, Kochia: 60
Kochia [1]; [8]
  Plant response rating, Kochia: 70
galium; [5]
  Plant response rating, Galium: 60
galium; [8]
  Plant response rating, Galium: 90
ragweed; [5]
  Plant response rating, Ragweed: 0
ragweed; [8]
  Plant response rating, Ragweed: 20
Kochia [2]; [10]
  Plant response rating, Kochia: 80
Kochia [2]; 125 g ai/ha
  Kochia plant response rating (0 to 100 scale): 100

## CCOc1cn(-c2c(Br)cccc2Oc2ncc(Cl)cn2)nn1 [Compound 84]
Kochia [1]; [3]
  Plant response rating, Kochia: 100
Kochia [1]; [4]
  Plant response rating, Kochia: 100
galium; [3]
  Plant response rating, Galium: 100
galium; [4]
  Plant response rating, Galium: 100
ragweed; [3]
  Plant response rating, Ragweed: 50
ragweed; [4]
  Plant response rating, Ragweed: 90
Kochia [2]; [3]
  Plant response rating, Kochia: 100
Kochia [2]; [9]
  Kochia plant response rating: 100

## N#Cc1cccc(Oc2ncc(Cl)cn2)c1-n1cnc(C(F)(F)F)c1 [Compound 252, 3-[(5-chloro-2-pyrimidinyl)oxy]-2-[4-(trifluoromethyl)-1H-imidazol-1-yl]benzonitrile]
Kochia [1]; [5]
  Plant response rating, Kochia: 70
Kochia [1]; [8]
  Plant response rating, Kochia: 100
Kochia [1]; [4]
  Plant response rating, Kochia: 100
galium; [5]
  Plant response rating, Galium: 60
galium; [8]
  Plant response rating, Galium: 90
galium; [4]
  Plant response rating, Galium: 100
ragweed; [5]
  Plant response rating, Ragweed: 20
ragweed; [8]
  Plant response rating, Ragweed: 70
ragweed; [4]
  Plant response rating, Ragweed: 90
Kochia [2]; [10]
  Plant response rating, Kochia: 80
Kochia [2]; 125 g ai/ha
  Kochia plant response rating (0 to 100 scale): 100
Kochia [2]; [4]
  Kochia plant response rating: 100

From patent US9695155B2, “Herbicidal substituted pyrimidinyloxy benzene compounds” (E. I. DU PONT DE NEMOURS AND COMPANY, priority 2013, dated 2017)
